EP0972447B1, “Parasitic and saprophagous mite control on beneficial insects” (BASF AKTIENGESELLSCHAFT, priority 1998, dated 2000)

How the values were obtained:
Varroa jacobsoni = experiment: Efficacy against Varroa jacobsoni on topically treated honeybees (Example 2, bees 90% infected): mite mortality; type: in vivo; conditions: 120 h, read-out: % Mortality Mites
Protocol: (§1) In this evaluation, honeybees (Apis mellifera) taken from hives which are 70% infested with Varroa jacobsoni (Varroa mites) are chilled to immobilize the bees. A 1µl droplet of an acetone solution of test compound is applied to the dorsal abdomen of each bee. Control bees receive a 1µl droplet of acetone. A total of 50-52 bees are treated for each dose rate tested. Treatment dose rates are based upon the LD50 (dose rate required to obtain 50% mortality of healthy uninfected bees) of each test compound and are set at 10% of the LD50 and subsequent 10-fold dilutions thereof. The treated bees are placed in an incubator at 31°C in the dark and fed 50% sugar water ad libitum for 5 days. After incubation, the bees are examined for mortality and mite infestation.
(§2) Using essentially the same procedure described in Example 1, but employing honeybees which are 90% infected with Varroa jacobsoni, the following results are obtained and shown in Table II below.

honeybees = experiment: Mortality of the topically treated host honeybees (Example 2); type: in vivo, Apis mellifera; conditions: bees 90% infected
Protocol: as §1, §2

[1] = tested on: Varroa jacobsoni (Varroa mites); experiment: Efficacy against Varroa jacobsoni on topically treated honeybees (Example 1, hives 70% infested): parasite mortality; type: in vivo; conditions: 120 h, 5 days at 31°C, read-out: % Mortality Parasites
Protocol: as §1

[2] = tested on: honeybees (Apis mellifera); experiment: Mortality of the topically treated host honeybees (Example 1); type: in vivo; conditions: 5 days at 31°C
Protocol: as §1

[3] = 0.002 µg/bee topical in acetone

CN(c1ccc(F)c(C(F)(F)F)c1)c1cc(Oc2ccc(F)c(C(F)(F)F)c2)ncn1 [C]
mortality at 0.01 µg/bee (Varroa jacobsoni; 0.01 µg/bee topical): 8% | mortality at 0.1 µg/bee (Varroa jacobsoni; 0.10 µg/bee topical): 80% | mortality at 1 µg/bee (Varroa jacobsoni; 1.00 µg/bee topical): 91% | % Mortality Bees (honeybees; 0.01 µg/bee topical): 13% | % Mortality Bees (honeybees; 0.10 µg/bee topical): 12% | % Mortality Bees (honeybees; 1.00 µg/bee topical): 16%

CN(c1ccc(F)c(C(F)(F)F)c1)c1cc(Oc2ccc(F)c(C(F)(F)F)c2)ncn1 [A]
mortality at 0.08 µg/bee ([1]; 0.08 µg/bee topical in acetone): 75% | mortality at 0.8 µg/bee ([1]; 0.8 µg/bee topical in acetone): 100% | mortality at 8 µg/bee ([1]; 8:0 µg/bee topical in acetone): 92% | % Mortality Bees ([2]; 0.08 µg/bee topical in acetone): 21% | % Mortality Bees ([2]; 0.8 µg/bee topical in acetone): 13% | % Mortality Bees ([2]; 8:0 µg/bee topical in acetone): 21%

Fc1ccc(Oc2cc(Oc3ccc(F)c(C(F)(F)F)c3)ncn2)cc1C(F)(F)F [B]
mortality at 0.002 µg/bee [1, 3]: 6% | mortality at 0.02 µg/bee ([1]; 0.02 µg/bee topical in acetone): 36% | mortality at 0.2 µg/bee ([1]; 0.2 µg/bee topical in acetone): 88% | % Mortality Bees [2, 3]: 16% | % Mortality Bees ([2]; 0.02 µg/bee topical in acetone): 14% | % Mortality Bees ([2]; 0.2 µg/bee topical in acetone): 10%
